{
  "source": "patent US20210116454A1",
  "about": "“METHODS FOR TREATING A HEMATOLOGICAL CANCER AND THE USE OF COMPANION BIOMARKERS FOR 2-(2,6-DIOXOPIPERIDIN-3-YL)-4-((2-FLUORO-4-((3-MORPHOLINOAZETIDIN-1-YL)METHYL)BENZYL)AMINO)ISOINDOLINE-1,3-DIONE” (CELGENE CORPORATION, priority 2019, published 2021)",
  "tested_on": "exhausted T cells",
  "test": "SEB-induced T-cell exhaustion restimulation assay, effector cytokine release (MSD)",
  "format": "cell-based",
  "settings": "for EC50: T cell restimulation assay",
  "note": "Read-outs that look alike come from different tables or passages of the source.",
  "data": [
    {"smiles": "O=C1CC[C@H](N2C(=O)c3cccc(NCc4ccc(CN5CC(N6CCOCC6)C5)cc4F)c3C2=O)C(=O)N1", "note": "[Compound 1, (S)-2-(2,6-dioxopiperidin-3-yl)-4-((2-fluoro-4-((3-morpholinoazetidin-1-yl)methyl)benzyl)amino)isoindoline-1,3-dione]", "values": [
      {"measurement": "EC50", "setting": "read-out: EC50 for secreted GM-CSF levels", "result": 6, "unit": "nM"},
      {"measurement": "EC50", "setting": "read-out: EC50 for secreted IFNγ", "result": 10, "unit": "nM"},
      {"measurement": "EC50", "setting": "read-out: EC50 for secreted TNFα", "result": 10, "unit": "nM"},
      {"measurement": "GM-CSF secretion", "setting": "approximately 0.001 μM for 96 hours", "result": 3000, "unit": "pg/mL"},
      {"measurement": "GM-CSF secretion", "setting": "approximately 0.01 μM for 96 hours", "result": "10,000 pg/mL"},
      {"measurement": "GM-CSF secretion plateau", "setting": "concentrations greater than 0.1 μM, 96 hours", "result": "under 15,000 pg/mL"}
    ]}
  ]
}
